Results published in ChEMBL document CHEMBL4014321, “Discovery of Pyrazolo[1,5-a]pyrimidine B-Cell Lymphoma 6 (BCL6) Binders and Optimization to High Affinity Macrocyclic Inhibitors” (J Med Chem, 2017).
≈ marks a conversion by molar mass, not a printed value.

Legend:
[1] = target: T1, B-cell lymphoma 6 protein (Homo sapiens, UniProt P41182, C67R/C84N/C8Q); experiment: Inhibition of SMRT2 H1426W mutant peptide binding to N-terminal His6-tagged human BCL6 BTB domain C8Q/C67R/C84N mutant expressed in Escherichia coli BL21 (DE3) preincubated for 30 mins followed by SMRT2 H1426W mutant peptide addition measured after 60 mins by time-resolved fluorescence resonance energy transfer assay
OCI-Ly1 = experiment: Antiproliferative activity against BCL6 dependent human OCI-LY1 cells after 3 days by CellTiter-Glo assay; type: functional; details: OCI-Ly1, 72 h
AMO1 = experiment: Antiproliferative activity against BCL6 dependent human AMO1 cells after 3 days by CellTiter-Glo assay; type: functional; details: AMO1, 72 h
SUD4 = experiment: Antiproliferative activity against BCL6 dependent human SUDHL4 cells after 3 days by CellTiter-Glo assay; type: functional; details: SU-DHL-4, 72 h
OCI-LY19 = experiment: Antiproliferative activity against BCL6 independent human OCI-LY19 cells after 3 days by CellTiter-Glo assay; type: functional; details: OCI-LY19, 72 h
TMD8 = experiment: Antiproliferative activity against BCL6 dependent human TMD8 cells after 3 days by CellTiter-Glo assay; type: functional; details: TMD8, 72 h
OCI-Ly3 = experiment: Antiproliferative activity against BCL6 dependent human OCI-LY3 cells after 3 days by CellTiter-Glo assay; type: functional; details: OCI-Ly3, 72 h
KARPAS-422 = experiment: Antiproliferative activity against BCL6 […] human KARPAS422 cells after 3 days by CellTiter-Glo assay; type: functional; details: KARPAS-422, 72 h
[2] = Inhibition of human CK2 protein
OCI-Ly10 = experiment: Antiproliferative activity against BCL6 dependent human OCI-LY10 cells after 3 days by CellTiter-Glo assay; type: functional; details: OCI-Ly10, 72 h
SU-DHL-2 = experiment: Antiproliferative activity against BCL6 dependent human SU-DHL-2 cells after 3 days by CellTiter-Glo assay; type: functional; details: SU-DHL-2, 72 h
U2932 = experiment: Antiproliferative activity against BCL6 dependent human U2932 cells after 3 days by CellTiter-Glo assay; type: functional; details: U2932, 72 h
Homo sapiens [3] = species: Homo sapiens; experiment: Inhibition of human CK2 protein at 1 uM relative to control
Homo sapiens [4] = species: Homo sapiens; experiment: Selectivity ratio of IC50 for human CK2 protein to IC50 for N-terminal His6-tagged human BCL6 BTB domain C8Q/C67R/C84N mutant
[5] = Octanol-buffer partition co-efficient, log D of the compound at pH 7.4 after 30 mins by shake flask method; type: physicochemical
[6] = target: T1, B-cell lymphoma 6 protein; experiment: Binding affinity to N-terminal His6-tagged human BCL6 BTB domain C8Q/C67R/C84N mutant expressed in Escherichia coli BL21 (DE3) by surface plasmon resonance spectrometry
[7] = target: 5-hydroxytryptamine receptor 1B (Homo sapiens, UniProt P28222); experiment: Agonist activity at 5-HT1B receptor (unknown origin)
[8] = Binding affinity to GABA receptor (unknown origin) by radioligand displacement assay; set-up: species or system Homo sapiens
[9] = Apparent permeability in human Caco2 cells; type: ADME, cell-based; details: Caco-2
[10] = Aqueous solubility of the compound at pH 7.4 after 24 hrs by LC-UV method; type: physicochemical

Chain of 5-hydroxytryptamine receptor 1B (P28222 whole entry): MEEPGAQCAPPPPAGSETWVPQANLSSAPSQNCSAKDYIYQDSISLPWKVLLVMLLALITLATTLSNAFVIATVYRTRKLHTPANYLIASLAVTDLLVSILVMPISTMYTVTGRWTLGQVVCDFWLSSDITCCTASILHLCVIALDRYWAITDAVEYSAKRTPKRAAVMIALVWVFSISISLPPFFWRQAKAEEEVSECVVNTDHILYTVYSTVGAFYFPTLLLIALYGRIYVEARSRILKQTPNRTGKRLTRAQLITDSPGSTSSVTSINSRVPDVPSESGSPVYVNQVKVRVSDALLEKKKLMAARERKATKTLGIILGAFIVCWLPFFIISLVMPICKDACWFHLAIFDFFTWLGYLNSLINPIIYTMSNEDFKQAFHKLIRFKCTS

| Structure (SMILES) | IC50 [1] | GI50 (OCI-Ly1) | GI50 (AMO1) | GI50 (SUD4) | GI50 (OCI-LY19) | GI50 (TMD8) | GI50 (OCI-Ly3) | GI50 (KARPAS-422) | IC50 [2] | GI50 (OCI-Ly10) | GI50 (SU-DHL-2) | GI50 (U2932) | inhibition (Homo sapiens [3]) | Ratio IC50 (Homo sapiens [4]) | logD at 0.5 h [5] | Kd [6] | EC50 [7] | Ki [8] | Papp [9] | solubility at 24 h [10] |
| --- | --- | --- | --- | --- | --- | --- | --- | --- | --- | --- | --- | --- | --- | --- | --- | --- | --- | --- | --- | --- |
| N#Cc1cnn2c(NC3CC3)cc(N3CCCC3)nc12 | > 99 µM |  |  |  |  |  |  |  |  |  |  |  |  |  |  |  |  |  |  |  |
| O=C1CCc2cc3cc(c2N1)OCCCCO[C@H]1C[C@@H](CO)N(C1)c1cc(n2nccc2n1)N3 |  | 12.6 µM | 12.6 µM | 20 µM | 12.6 µM | 10 µM | 15.8 µM | 12.6 µM | > 10 µM | 12.6 µM | 10 µM | 15.8 µM |  |  |  |  |  |  |  |  |
| O=C1CCc2cc3cc(c2N1Cc1ccncc1)OC/C=C/CO[C@H]1C[C@@H](CO)N(C1)c1cc(n2ncc(Cl)c2n1)N3 |  | 10 µM | 20 µM | 10 µM | 12.6 µM | 10 µM | 12.6 µM | 12.6 µM | > 10 µM | 10 µM | 7.94 µM | 10 µM |  |  |  |  |  |  |  |  |
| N#Cc1cnn2c(Nc3ccc4c(c3)CCC(=O)N4)cc(N3CCC[C@@H]3CO)nc12 | 0.59 µM |  |  |  |  |  |  |  |  |  |  |  |  |  |  |  |  |  |  |  |
| N#Cc1cnn2c3cc(nc12)N1C[C@H](C[C@H]1CO)OC/C=C/COc1cc(cc2c1NC(=O)CC2)N3 | 0.0029 µM | 10 µM | 15.8 µM | 7.94 µM | 6.31 µM | 7.94 µM | 3.98 µM | 7.94 µM |  | 5.01 µM | 3.16 µM | 6.31 µM | > 60% | 220 | 2.2 | 0.0065 µM |  |  |  |  |
| Cc1ccc(CN2C(=O)CCc3cc4cc(c32)OC/C=C/CO[C@H]2C[C@@H](CO)N(C2)c2cc(n3ncc(Cl)c3n2)N4)cc1 |  | 7.94 µM | 20 µM | 20 µM | 10 µM | 15.8 µM | 15.8 µM | > 31.6 µM | > 10 µM | 12.6 µM | 6.31 µM | 10 µM |  |  |  |  |  |  |  |  |
| N#Cc1cnn2c(Nc3ccccc3)cc(N3CCCC3)nc12 | > 100 µM |  |  |  |  |  |  |  |  |  |  |  |  |  |  |  |  |  |  |  |
| O=C1CCc2cc3cc(c2N1CC1CC(F)(F)C1)OC/C=C/CO[C@H]1C[C@@H](CO)N(C1)c1cc(n2ncc(Cl)c2n1)N3 |  | 7.94 µM | 25.1 µM | 10 µM | 6.31 µM | 10 µM | 12.6 µM | 10 µM | 2.1 µM | 7.94 µM | 7.94 µM | 6.31 µM |  |  |  |  |  |  |  |  |
| O=C1CCc2cc3cc(c2N1Cc1ccccc1)OC/C=C/CO[C@H]1C[C@@H](CO)N(C1)c1cc(n2ncc(Cl)c2n1)N3 |  | 12.6 µM | 25.1 µM | 15.8 µM | 10 µM | 10 µM | 12.6 µM | 25.1 µM | > 10 µM | 10 µM | 10 µM | 7.94 µM |  |  |  |  | 0.57 µM | 0.25 µM |  |  |
| COc1cccc(CN2C(=O)CCc3cc4cc(c32)OC/C=C/CO[C@H]2C[C@@H](CO)N(C2)c2cc(n3ncc(C#N)c3n2)N4)c1 |  | 3.16 µM | 10 µM | 6.31 µM | 5.01 µM | 3.98 µM | 6.31 µM | 5.01 µM | 1.2 µM | 3.98 µM | 2.51 µM | 3.98 µM |  |  |  |  |  |  |  |  |
| N#Cc1cnn2c(Nc3ccc4c(c3)CCC(=O)N4)cc(N3CCC[C@H]3CC(=O)O)nc12 | 0.35 µM |  |  |  |  |  |  |  |  |  |  |  |  |  |  | 1.1 µM |  |  |  |  |
| CCNc1cc(-c2cccnc2)nc2ccnn12 |  |  |  |  |  |  |  |  |  |  |  |  |  |  |  | 689 µM |  |  |  |  |
| O=C1CCc2cc3cc(c2N1)OC/C=C/CO[C@H]1C[C@@H](CO)N(C1)c1cc(n2ncc(Cl)c2n1)N3 |  | 3.98 µM | 3.16 µM | 6.31 µM | 2 µM | 2.51 µM | 2 µM | 5.01 µM | 7.3 µM | 1.58 µM | 3.98 µM | 2.51 µM |  |  |  |  |  |  | 46 ×10⁻⁶ cm/s | 31 µM (≈ 15.4 µg/mL) |
| N#Cc1cnn2c(NC3CC3)ccnc12 | > 99 µM |  |  |  |  |  |  |  |  |  |  |  |  |  |  | 319 µM |  |  |  |  |
| Cc1ccccc1CN1C(=O)CCc2cc3cc(c21)OC/C=C/CO[C@H]1C[C@@H](CO)N(C1)c1cc(n2ncc(Cl)c2n1)N3 |  | 10 µM | 25.1 µM | 6.31 µM | 10 µM | 20 µM | 15.8 µM | > 31.6 µM | > 10 µM | 10 µM | 6.31 µM | 10 µM |  |  |  |  |  |  |  |  |
| CN1C(=O)CCc2cc3cc(c21)OC/C=C/CO[C@H]1C[C@@H](CO)N(C1)c1cc(n2ncc(Cl)c2n1)N3 |  | 6.31 µM | 5.01 µM | 6.31 µM | 5.01 µM | 3.98 µM | 6.31 µM | 5.01 µM | 7 µM | 6.31 µM | 3.16 µM | 5.01 µM |  |  |  |  |  |  |  |  |
| O=C1CCc2cc3cc(c2N1CCCN1CCOCC1)OC/C=C/CO[C@H]1C[C@@H](CO)N(C1)c1cc(n2ncc(Cl)c2n1)N3 |  | 10 µM | 12.6 µM | 12.6 µM | 7.94 µM | 10 µM | 10 µM | 12.6 µM | 5.9 µM | 7.94 µM | 10 µM | 10 µM |  |  |  |  |  |  |  |  |
| N#Cc1cnn2c(Nc3ccc4c(c3)CCC(=O)N4)cc(N3CCC[C@H]3CO)nc12 | 0.37 µM |  |  |  |  |  |  |  |  |  |  |  |  |  | 2.3 | 0.5 µM |  |  |  |  |
| N#Cc1cnn2c(Nc3ccc4c(c3)CCC(=O)N4)cc(N3CCCC3)nc12 | 2.9 µM |  |  |  |  |  |  |  |  |  |  |  |  |  |  |  |  |  |  |  |
